Data from US8501722B2, “Methods and compositions for treating bacterial infection” (priority 2009, dated 2013).
Where “and” joins values, the source holds several entries; their conditions need not be identical. Equal values may be shown once. Read-outs that look alike come from different tables or passages of the source.

Tests used:
[1] = test system: SK(+)GAS; experiment: GAS growth by OD600 nm of culture; assay type: cell-based, Group A Streptococcus; settings: Streptococcus; for activity at 5 µg/mL: read-out: GAS Growth (% control), compound conc. 5 μg/ml; for activity at 10 µg/mL: read-out: GAS Growth (% control), compound conc. 10 μg/ml; for activity at 20 µg/mL: read-out: GAS Growth (% control), compound conc. 20 μg/ml; for activity at 30 µg/mL: read-out: GAS Growth (% control), compound conc. 30 μg/ml; for activity at 40 µg/mL: read-out: GAS Growth (% control), compound conc. 40 μg/ml; for activity at 50 µg/mL: read-out: GAS Growth (% control), compound conc. 50 μg/ml; for activity at 60 µg/mL: read-out: GAS Growth (% control), compound conc. 60 μg/ml; for activity at 70 µg/mL: read-out: GAS Growth (% control), compound conc. 70 μg/ml; for activity at 0.1 µg/mL: read-out: GAS Growth (% control), compound conc. 0.1 μg/ml; for activity at 0.3 µg/mL: read-out: GAS Growth (% control), compound conc. 0.3 μg/ml; for activity at 2.5 µg/mL: read-out: GAS Growth (% control), compound conc. 2.5 μg/ml
[2] = test system: streptokinase (SK)
Procedure: SK− Ecoli and SKCtr1's dose response relationship with these compounds were then examined.
The effects of 10 hit compounds out of the 23 identified were further tested by dose response assays. […] These compounds were tested for inhibition of ska expression by measuring SK activity in supernatants of GAS exposed to the test compound or control vehicle alone (DMSO). SK(+)GAS were cultured with hit compounds at a dose range of 10 nM to 100 μM at 37° C. for 16-20 hours. Supernatants of SK(+)GAS cultures were measured for SK activity using chromogenic substrate 2403 (Diapharma group Inc., West Chester, Ohio), according to the manufacturer's instruction and simultaneously monitored for nonspecific effects on GAS growth by measuring OD600 nm.
The positive compounds identified in dose response assays are subjected to SK assay to identify compounds inhibiting SK expression in SK(+)GAS. Briefly, SK(+)GAS is grown at the presence of hit compounds at a dose range determined by dose response assays within which SK(−) GAS growth is inhibited less than 10% while SKKanGAS growth is inhibited more than 50% under 20 μg/ml kanamycin.

Compound | activity at 5 µg/mL [1] | activity at 10 µg/mL [1] | activity at 20 µg/mL [1] | activity at 40 µg/mL [1] | SK Expression (% control) ([2]; compound conc. 5 μg/ml) | SK Expression (% control) ([2]; compound conc. 10 μg/ml) | SK Expression (% control) ([2]; compound conc. 20 μg/ml) | SK Expression (% control) ([2]; compound conc. 40 μg/ml) | activity at 70 µg/mL [1] | SK Expression (% control) ([2]; compound conc. 30 μg/ml) | SK Expression (% control) ([2]; compound conc. 60 μg/ml) | activity at 0.1 µg/mL [1] | activity at 0.3 µg/mL [1] | activity at 2.5 µg/mL [1] | SK Expression (% control) ([2]; compound conc. 0.1 μg/ml) | SK Expression (% control) ([2]; compound conc. 0.3 μg/ml) | SK Expression (% control) ([2]; compound conc. 1.0 μg/ml) | SK Expression (% control) ([2]; compound conc. 3 μg/ml) | other results
C=CCn1c(SCC)nc2c(c1=O)C(C)(C)Cc1ccccc1-2 [1S-26137] | 89% | 89% | 91% | 98% | 21 % control | 20 % control | 22 % control | 19 % control |  |  |  |  |  |  |  |  |  |  | activity at 30 µg/mL [1]: 105%
C=CCn1c(SCC(=O)OCC)nc2c(c1=O)C(C)(C)Cc1ccccc1-2 [1S-30398] | 98% | 98% | 99% | 111% | 42 % control | 36 % control | 38 % control | 39 % control |  |  |  |  |  |  |  |  |  |  | 
CCn1c(SCc2ccccc2)nc2c(c1=O)C1(CCCC1)Cc1ccccc1-2 [AK968] |  | 96% | 105% | 117% |  | 83 % control | 64 % control | 54 % control | 130% | 57 % control | 33 % control |  |  |  |  |  |  |  | activity at 30 µg/mL [1]: 112%; activity at 50 µg/mL [1]: 124%; activity at 60 µg/mL [1]: 123%; SK Expression (% control) ([2]; compound conc. 50 μg/ml): 40 % control; SK Expression (% control) ([2]; compound conc. 70 μg/ml): 45 % control
C=CCn1c(SCc2ccc(OC)cc2)nc2c(c1=O)C1(CCCCC1)Cc1ccccc1-2 [CCG-102483, 3-allyl-2-(4-methoxybenzylthio)-3H-spiro[benzo[h]quinazoline-5,1′-cyclohexan]-4(6H)-one] | 104% |  |  | 115% | 119 % control |  |  | 80 % control |  |  |  |  |  |  |  |  |  |  | 
C=CCn1c(SCc2cccc(OC)c2)nc2c(c1=O)C1(CCCCC1)Cc1ccccc1-2 [CCG-102485, 3-allyl-2-(3-methoxybenzylthio)-3H-spiro[benzo[h]quinazoline-5,1′-cyclohexan]-4(6H)-one] | 102% |  |  | 104% | 81 % control |  |  | 91 % control |  |  |  |  |  |  |  |  |  |  | 
C=CCn1c(SCCc2ccc(OC)cc2)nc2c(c1=O)C1(CCCCC1)Cc1ccccc1-2 [CCG-102489, 3-allyl-2-(4-methoxyphenethylthio)-3H-spiro[benzo[h]quinazoline-5,1′-cyclohexan]-4(6H)-one] | 106% |  |  | 114% | 91 % control |  |  | 79 % control |  |  |  |  |  |  |  |  |  |  | 
C=CCn1c(SCc2ccc(NC(C)=O)cc2)nc2c(c1=O)C1(CCCCC1)Cc1ccccc1-2 [CCG-102491, N-(4-((3-allyl-4-oxo-4,6-dihydro-3H-spiro[benzo[h]quinazoline-5,1′-cyclohexane]-2-ylthio)methyl)phenyl)acetamide] | 109% |  |  | 112% | 85 % control |  |  | 96 % control |  |  |  |  |  |  |  |  |  |  | 
C=CCn1c(SCCOC)nc2c(c1=O)C1(CCCCC1)Cc1ccccc1-2 [CCG-102493, 3-allyl-2-(2-methoxyethylthio)-3H-spiro[benzo[h]quinazoline-5,1′-cyclohexan]-4(6H)-one] | 92% | 94% |  |  | 98 % control and 50 % control |  |  |  | 129% | 64 % control and 42 % control | 52 % control and 27 % control | 99% | 103% | 93% | 75 % control | 98 % control | 54 % control | 51 % control | activity at 30 µg/mL [1]: 110%; activity at 50 µg/mL [1]: 123%; activity at 60 µg/mL [1]: 125%; SK Expression (% control) ([2]; compound conc. 2.5 μg/ml): 101 % control; SK Expression (% control) ([2]; compound conc. 50 μg/ml): 49 % control; SK Expression (% control) ([2]; compound conc. 70 μg/ml): 52 % control
C=CCn1c(SCCN(C)C)nc2c(c1=O)C1(CCCCC1)Cc1ccccc1-2 [CCG-102495, 3-allyl-2-(2-(dimethylamino)ethylthio)-3H-spiro[benzo[h]quinazoline-5,1′-cyclohexan]-4(6H)-one] |  |  | 18% |  |  |  | 17 % control |  |  |  |  |  |  |  |  |  |  |  | 
C=CCn1c(SC)nc2c(c1=O)C1(CCCCC1)Cc1ccccc1-2 [CCG-102620, 3-Allyl-2-(methylthio)-3H-spiro[benzo[h]quinazoline-5,1′-cyclohexan]-4(6H)-one] | 104% | 106% | 104% | 115% | 62 % control | 50 % control | 33 % control | 27 % control |  |  |  |  |  |  |  |  |  |  | 
C=CCn1c(OCC)nc2c(c1=O)C1(CCCCC1)Cc1ccccc1-2 [CCG-102622, 3-Allyl-2-ethoxy-3H-spiro[benzo[h]quinazoline-5,1′-cyclohexan]-4(6H)-one] | 99% | 100% | 103% | 113% | 43 % control | 41 % control | 38 % control | 23 % control |  |  |  |  |  |  |  |  |  |  | 
C=CCn1c(SCCOC)nc2c(c1=O)C(C)(C)Cc1ccccc1-2 [CCG-102624, 3-Allyl-2-(2-methoxyethylthio)-5,5-dimethyl-5,6-dihydrobenzo[h]quinazolin-4(3H)-one] | 93% | 94% | 93% | 87% | 30 % control | 33 % control and 29 % control | 30 % control | 23 % control | 113% | 26 % control | 28 % control | 100% | 98% | 101% | 90 % control | 97 % control | 79 % control | 35 % control | 
C=CCn1c(SCC(N)=O)nc2c(c1=O)C(C)(C)Cc1ccccc1-2 [CCG-203037, 2-(3-Allyl-5,5-dimethyl-4-oxo-3,4,5,6-tetrahydrobenzo[h]quinazolin-2-ylthio)acetamide] | 102% |  | 105% | 102% |  | 92 % control |  |  | 106% | 79 % control | 38 % control | 98% | 99% | 101% | 96 % control | 97 % control | 96 % control | 94 % control | 
C=CCn1c(SCc2ccccn2)nc2c(c1=O)C(C)(C)Cc1ccccc1-2 [CCG-203039, 3-Allyl-5,5-dimethyl-2-(pyridin-2-ylmethylthio)-5,6-dihydrobenzo[h]quinazolin-4(3H)-one] | 100% |  | 104% | 115% |  | 49 % control |  |  | 135% | 35 % control | 27 % control | 100% | 100% | 104% | 94 % control | 95 % control | 93 % control | 58 % control | 
C=CCn1c(SCCO)nc2c(c1=O)C(C)(C)Cc1ccccc1-2 [CCG-203041, 3-Allyl-2-(2-hydroxyethylthio)-5,5-dimethyl-5,6-dihydrobenzo[h]quinazolin-4(3H)-one] | 106% |  | 107% | 60% |  | 57 % control |  |  | 50% | 28 % control | 12 % control | 100% | 102% | 104% | 93 % control | 90 % control | 90 % control | 87 % control | 
C=CCn1c(NCC)nc2c(c1=O)C1(CCCCC1)Cc1ccccc1-2 [CCG-203043, 3-allyl-2-(ethylamino)-3H-spiro[benzo[h]quinazoline-5,1′-cyclohexan]-4(6H)-one] | 116% |  | 113% | 115% |  | 41 % control |  |  | 124% | 32 % control | 24 % control | 101% | 104% | 106% | 96 % control | 96 % control | 94 % control | 62 % control | 
